Data as given in patent US8604217B2, “Compound, a process for its preparation, a pharmaceutical composition, use of a compound, a method for modulating or regulating serine/threonine kinases and a serine/threonine kinases modulating agent” (Selvita S.A., priority 2009, dated 2013).

Legend:
Assay in all cases: KinaseProfiler kinase panel
Format in all cases: biochemical
[1] = target: PDGFRβ(h) (Homo sapiens (Human), UniProt P09619)
[2] = target: EGFR(h) (Homo sapiens (Human), UniProt P00533)
[3] = target: eEF-2K(h) (Homo sapiens (Human), UniProt O00418)
[4] = target: Met(Y1248D)(h) (Homo sapiens (Human), UniProt P08581, Y1248D)
[5] = target: Fes(h) (Homo sapiens (Human), UniProt P07332)
Chain of Fes(h) (P07332 whole entry): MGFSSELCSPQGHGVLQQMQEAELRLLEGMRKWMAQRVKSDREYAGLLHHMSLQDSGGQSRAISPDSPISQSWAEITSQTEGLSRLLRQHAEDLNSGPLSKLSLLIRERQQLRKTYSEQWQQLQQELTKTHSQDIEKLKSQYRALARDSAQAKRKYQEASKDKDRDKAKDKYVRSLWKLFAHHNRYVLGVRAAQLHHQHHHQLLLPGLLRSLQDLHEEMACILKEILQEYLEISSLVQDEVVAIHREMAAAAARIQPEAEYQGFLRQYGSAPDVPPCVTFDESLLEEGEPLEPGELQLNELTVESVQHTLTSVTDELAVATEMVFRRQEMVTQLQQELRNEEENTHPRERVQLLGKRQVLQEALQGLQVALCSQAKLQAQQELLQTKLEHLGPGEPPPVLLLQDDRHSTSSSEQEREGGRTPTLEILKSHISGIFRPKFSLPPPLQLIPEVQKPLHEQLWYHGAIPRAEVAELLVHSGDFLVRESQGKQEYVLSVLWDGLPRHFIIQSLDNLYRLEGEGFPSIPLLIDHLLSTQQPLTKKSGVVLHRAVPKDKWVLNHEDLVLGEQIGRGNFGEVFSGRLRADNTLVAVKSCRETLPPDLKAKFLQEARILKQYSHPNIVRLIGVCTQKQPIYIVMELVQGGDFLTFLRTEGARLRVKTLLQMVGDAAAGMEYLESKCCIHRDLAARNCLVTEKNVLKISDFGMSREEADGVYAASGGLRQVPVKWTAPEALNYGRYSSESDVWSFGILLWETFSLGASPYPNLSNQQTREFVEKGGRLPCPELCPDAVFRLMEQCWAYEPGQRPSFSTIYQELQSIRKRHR

[6] = target: TAK1(h) (Homo sapiens (Human), UniProt O43318)
[7] = target: EphA2(h) (Homo sapiens (Human), UniProt P29317)
[8] = target: MARK1(h) (Homo sapiens (Human), UniProt Q9P0L2)
Chain of MARK1(h) (Q9P0L2 whole entry): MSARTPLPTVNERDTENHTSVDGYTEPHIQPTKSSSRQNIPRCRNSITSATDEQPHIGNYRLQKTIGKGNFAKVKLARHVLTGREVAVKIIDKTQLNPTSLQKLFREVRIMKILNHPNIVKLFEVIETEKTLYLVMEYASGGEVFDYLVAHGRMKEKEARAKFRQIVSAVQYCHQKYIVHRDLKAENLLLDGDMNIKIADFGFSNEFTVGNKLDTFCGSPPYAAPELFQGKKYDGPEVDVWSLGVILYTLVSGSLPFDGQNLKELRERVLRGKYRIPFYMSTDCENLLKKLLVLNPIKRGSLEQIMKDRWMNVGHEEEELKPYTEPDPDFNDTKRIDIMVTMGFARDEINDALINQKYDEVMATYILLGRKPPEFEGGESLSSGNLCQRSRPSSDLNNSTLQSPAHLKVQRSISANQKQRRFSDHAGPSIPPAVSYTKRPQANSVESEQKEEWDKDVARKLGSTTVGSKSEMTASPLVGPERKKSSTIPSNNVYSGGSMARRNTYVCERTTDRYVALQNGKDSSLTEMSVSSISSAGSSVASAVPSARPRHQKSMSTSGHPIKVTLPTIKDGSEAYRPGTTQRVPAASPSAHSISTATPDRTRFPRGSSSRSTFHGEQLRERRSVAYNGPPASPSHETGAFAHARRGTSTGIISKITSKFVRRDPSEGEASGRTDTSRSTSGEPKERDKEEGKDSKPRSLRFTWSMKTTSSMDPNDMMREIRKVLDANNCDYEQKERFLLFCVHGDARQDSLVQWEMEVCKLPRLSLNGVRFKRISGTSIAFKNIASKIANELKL

[9] = target: Rsk3(h) (Homo sapiens (Human), UniProt Q15349)
[10] = target: BrSK1(h) (Homo sapiens (Human), UniProt Q8TDC3)
Chain of BrSK1(h) (Q8TDC3 whole entry): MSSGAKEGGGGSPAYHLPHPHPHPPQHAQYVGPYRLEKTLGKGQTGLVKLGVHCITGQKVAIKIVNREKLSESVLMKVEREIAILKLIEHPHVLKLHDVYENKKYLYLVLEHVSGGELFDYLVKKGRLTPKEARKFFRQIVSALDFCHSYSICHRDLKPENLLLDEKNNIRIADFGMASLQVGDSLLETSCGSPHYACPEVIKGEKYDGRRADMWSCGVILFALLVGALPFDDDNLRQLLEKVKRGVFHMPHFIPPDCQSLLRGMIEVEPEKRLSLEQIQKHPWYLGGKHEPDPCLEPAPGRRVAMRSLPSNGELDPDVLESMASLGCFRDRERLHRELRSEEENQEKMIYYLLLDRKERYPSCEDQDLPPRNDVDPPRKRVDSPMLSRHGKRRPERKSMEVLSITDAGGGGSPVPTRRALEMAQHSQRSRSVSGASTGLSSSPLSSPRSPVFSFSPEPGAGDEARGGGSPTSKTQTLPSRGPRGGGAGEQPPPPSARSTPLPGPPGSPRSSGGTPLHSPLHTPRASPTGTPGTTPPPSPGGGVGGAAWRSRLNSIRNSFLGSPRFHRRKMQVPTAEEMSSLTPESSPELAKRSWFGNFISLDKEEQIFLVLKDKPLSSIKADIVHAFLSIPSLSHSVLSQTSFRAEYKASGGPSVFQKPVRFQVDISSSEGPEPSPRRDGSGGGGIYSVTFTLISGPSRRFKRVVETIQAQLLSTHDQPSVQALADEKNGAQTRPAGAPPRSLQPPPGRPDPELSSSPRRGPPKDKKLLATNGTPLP

[11] = target: ARK5(h) (Homo sapiens (Human), UniProt O60285)
[12] = target: EphA7(h) (Homo sapiens (Human), UniProt Q15375)
[13] = target: CK1γ3(h) (Homo sapiens (Human), UniProt Q9Y6M4)
[14] = target: BTK(h) (Homo sapiens (Human), UniProt Q06187)
[15] = target: PDGFRα(h) (Homo sapiens (Human), UniProt P16234)
[16] = target: ALK(h) (Homo sapiens (Human), UniProt Q9UM73)
[17] = target: c-RAF(h) (Homo sapiens (Human), UniProt P04049, Y340D/Y341D)
[18] = target: IKKβ(h) (Homo sapiens (Human), UniProt O14920)
[19] = target: EphB4(h) (Homo sapiens (Human), UniProt P54760)
[20] = target: BrSK2(h) (Homo sapiens (Human), UniProt Q8IWQ3)
[21] = target: cKit(D816V)(h) (Homo sapiens (Human), UniProt P10721, D816V)
[22] = target: CK2(h) (Homo sapiens (Human), UniProt P68400)
[23] = target: IR(h) (Homo sapiens (Human), UniProt P06213)
[24] = target: CLK3(h) (Homo sapiens (Human), UniProt P49761)
[25] = target: cKit(V654A)(h) (Homo sapiens (Human), UniProt P10721, V654A)
[26] = target: Fyn(h) (Homo sapiens (Human), UniProt P06241)
[27] = target: PKA(h) (Homo sapiens (Human), UniProt P17612)
[28] = target: Met(Y1248H)(h) (Homo sapiens (Human), UniProt P08581, Y1248H)
[29] = target: SAPK4(h) (Homo sapiens (Human), UniProt O15264)
[30] = target: MAPK1(h) (Homo sapiens (Human), UniProt P27361)
[31] = target: WNK2(h) (Homo sapiens (Human), UniProt Q9Y3S1)
[32] = target: CDK1/cyclinB(h) (Homo sapiens (Human), UniProt P06493)
[33] = target: GRK7(h) (Homo sapiens (Human), UniProt Q8WTQ7)
[34] = target: IRR(h) (Homo sapiens (Human), UniProt P14616)
[35] = target: EGFR(L858R)(h) (Homo sapiens (Human), UniProt P00533, L858R)
Chain of EGFR(L858R)(h) (P00533 25-1210 L858R): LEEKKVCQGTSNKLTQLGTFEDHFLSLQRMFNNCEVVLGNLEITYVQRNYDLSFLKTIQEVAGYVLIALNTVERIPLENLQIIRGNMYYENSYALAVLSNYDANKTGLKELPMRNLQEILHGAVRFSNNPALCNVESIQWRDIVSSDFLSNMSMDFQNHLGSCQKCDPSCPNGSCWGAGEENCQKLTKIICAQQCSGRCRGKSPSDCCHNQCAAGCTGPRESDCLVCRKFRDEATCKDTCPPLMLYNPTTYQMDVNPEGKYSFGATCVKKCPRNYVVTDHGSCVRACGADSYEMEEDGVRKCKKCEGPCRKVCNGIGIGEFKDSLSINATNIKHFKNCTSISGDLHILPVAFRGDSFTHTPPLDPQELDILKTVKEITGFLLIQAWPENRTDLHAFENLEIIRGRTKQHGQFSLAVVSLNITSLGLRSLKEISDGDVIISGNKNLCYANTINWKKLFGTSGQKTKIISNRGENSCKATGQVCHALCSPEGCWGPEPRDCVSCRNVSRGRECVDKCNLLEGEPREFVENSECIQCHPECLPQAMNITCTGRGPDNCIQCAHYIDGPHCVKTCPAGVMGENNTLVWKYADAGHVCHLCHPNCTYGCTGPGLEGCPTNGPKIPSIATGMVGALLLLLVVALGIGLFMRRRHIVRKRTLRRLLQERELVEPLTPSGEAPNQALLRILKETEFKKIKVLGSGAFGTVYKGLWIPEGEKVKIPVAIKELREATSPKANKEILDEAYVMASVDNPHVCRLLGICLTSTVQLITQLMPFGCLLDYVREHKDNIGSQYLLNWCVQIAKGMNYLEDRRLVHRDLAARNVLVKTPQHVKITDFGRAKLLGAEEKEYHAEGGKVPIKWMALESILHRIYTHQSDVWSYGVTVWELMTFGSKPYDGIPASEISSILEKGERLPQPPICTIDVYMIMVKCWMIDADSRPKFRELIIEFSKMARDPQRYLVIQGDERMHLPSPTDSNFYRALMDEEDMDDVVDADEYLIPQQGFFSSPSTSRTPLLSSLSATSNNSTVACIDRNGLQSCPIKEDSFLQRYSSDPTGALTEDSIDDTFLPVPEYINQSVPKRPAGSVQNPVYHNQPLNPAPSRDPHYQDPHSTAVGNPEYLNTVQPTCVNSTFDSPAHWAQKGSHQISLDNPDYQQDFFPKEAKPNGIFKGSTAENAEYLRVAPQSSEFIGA

[36] = target: LIMK1(h) (Homo sapiens (Human), UniProt P53667)
[37] = target: DAPK1(h) (Homo sapiens (Human), UniProt P53355)
Chain of DAPK1(h) (P53355 whole entry): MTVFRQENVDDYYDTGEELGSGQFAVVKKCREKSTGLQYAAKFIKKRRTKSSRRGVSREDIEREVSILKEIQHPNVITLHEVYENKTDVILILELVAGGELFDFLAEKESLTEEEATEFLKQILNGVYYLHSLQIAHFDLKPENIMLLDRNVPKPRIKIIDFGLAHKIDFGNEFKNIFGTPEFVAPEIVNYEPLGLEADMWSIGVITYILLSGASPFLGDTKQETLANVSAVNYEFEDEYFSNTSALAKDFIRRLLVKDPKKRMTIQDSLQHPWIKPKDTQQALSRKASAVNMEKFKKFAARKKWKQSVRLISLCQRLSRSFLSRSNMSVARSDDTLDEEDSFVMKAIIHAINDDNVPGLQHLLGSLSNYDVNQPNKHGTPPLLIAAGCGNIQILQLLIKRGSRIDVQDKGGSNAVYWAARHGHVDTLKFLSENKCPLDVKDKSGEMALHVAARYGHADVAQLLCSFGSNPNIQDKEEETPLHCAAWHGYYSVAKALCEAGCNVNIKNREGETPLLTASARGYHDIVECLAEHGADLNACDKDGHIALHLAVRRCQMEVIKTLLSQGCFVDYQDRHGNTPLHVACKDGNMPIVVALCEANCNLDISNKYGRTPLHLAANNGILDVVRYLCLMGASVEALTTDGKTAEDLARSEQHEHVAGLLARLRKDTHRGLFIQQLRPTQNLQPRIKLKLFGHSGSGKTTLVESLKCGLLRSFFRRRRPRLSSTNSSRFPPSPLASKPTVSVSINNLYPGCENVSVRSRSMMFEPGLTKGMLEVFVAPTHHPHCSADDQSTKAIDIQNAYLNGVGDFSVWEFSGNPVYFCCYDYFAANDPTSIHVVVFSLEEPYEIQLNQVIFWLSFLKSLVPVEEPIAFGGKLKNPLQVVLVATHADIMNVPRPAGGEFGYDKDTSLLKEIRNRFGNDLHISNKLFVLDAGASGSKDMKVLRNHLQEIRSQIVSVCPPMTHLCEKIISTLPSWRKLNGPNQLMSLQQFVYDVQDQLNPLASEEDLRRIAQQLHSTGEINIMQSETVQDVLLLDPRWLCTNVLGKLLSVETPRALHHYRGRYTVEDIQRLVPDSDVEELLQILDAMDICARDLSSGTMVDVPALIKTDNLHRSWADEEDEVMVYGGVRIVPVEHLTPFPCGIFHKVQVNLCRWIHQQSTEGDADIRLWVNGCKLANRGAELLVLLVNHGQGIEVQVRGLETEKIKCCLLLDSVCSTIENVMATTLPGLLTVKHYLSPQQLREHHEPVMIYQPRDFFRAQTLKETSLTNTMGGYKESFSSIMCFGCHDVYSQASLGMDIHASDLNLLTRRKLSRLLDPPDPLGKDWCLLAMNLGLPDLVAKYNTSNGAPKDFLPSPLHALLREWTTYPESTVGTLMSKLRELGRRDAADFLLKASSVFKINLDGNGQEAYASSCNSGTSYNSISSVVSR

[38] = target: PKBα(h) (Homo sapiens (Human), UniProt P31749)
[39] = target: mTOR(h) (Homo sapiens (Human), UniProt P42345)
[40] = target: WNK3(h) (Homo sapiens (Human), UniProt Q9BYP7)

remaining activity at 1 µM [1]: 102%
remaining activity at 1 µM [2]: 89%
remaining activity at 1 µM [3]: 107%
remaining activity at 1 µM [4]: 81%
remaining activity at 1 µM [5]: 52%
remaining activity at 1 µM [6]: 52%
remaining activity at 1 µM [7]: 106%
remaining activity at 1 µM [8]: 91%
remaining activity at 1 µM [9]: 71%
remaining activity at 1 µM [10]: 103%
remaining activity at 1 µM [11]: 93%
remaining activity at 1 µM [12]: 91%
remaining activity at 1 µM [13]: 89%
remaining activity at 1 µM [14]: 107%
remaining activity at 1 µM [15]: 98%
remaining activity at 1 µM [16]: 106%
remaining activity at 1 µM [17]: 85%
remaining activity at 1 µM [18]: 78%
remaining activity at 1 µM [19]: 100%
remaining activity at 1 µM [20]: 91%
remaining activity at 1 µM [21]: 61%
remaining activity at 1 µM [22]: 59%
remaining activity at 1 µM [23]: 104%
remaining activity at 1 µM [24]: 82%
remaining activity at 1 µM [25]: 36%
remaining activity at 1 µM [26]: 73%
remaining activity at 1 µM [27]: 70%
remaining activity at 1 µM [28]: 70%
remaining activity at 1 µM [29]: 51%
remaining activity at 1 µM [30]: 94%
remaining activity at 1 µM [31]: 102%
remaining activity at 1 µM [32]: 7%
remaining activity at 1 µM [33]: 93%
remaining activity at 1 µM [34]: 91%
remaining activity at 1 µM [35]: 22%
remaining activity at 1 µM [36]: 98%
remaining activity at 1 µM [37]: 100%
remaining activity at 1 µM [38]: 59%
remaining activity at 1 µM [39]: 95%
remaining activity at 1 µM [40]: 94%
Compound: CCn1c(N2CCNCC2)nc2c(Br)c(Br)c(Br)c(Br)c21 [Compound 416, 4,5,6,7-tetrabromo-1-ethyl-2-(piperazin-1-yl)-1H-benzo[d]imidazole]
